# Laboratory results reported in BindingDB's records for doi:10.1016/j.bmcl.2007.05.099 (Southern Research Institute, 2007).
# Assay: Inhibition of Mycobacterium smegmatis arabinosyl transferase assessed as [14C]arabinofuranose incorporation
row,Structure (SMILES),IC50
1,"O[C@H]1[C@H](O)[C@@H](CN(CC2CCCCC2)CC2CCCCC2)O[C@@H]1CC[C@H]1O[C@H](CN(CC2CCCCC2)CC2CCCCC2)[C@@H](O)[C@@H]1O [(2R,3S,4S,5R)-2-((bis(cyclohexylmethyl)amino)methyl)-5-(2-((2R,3S,4S,5R)-5-((bis(cyclohexylmethyl)amino)methyl)-3,4-dihydroxy-tetrahydrofuran-2-yl)ethyl)-tetrahydrofuran-3,4-diol]",3.44 mM
2,"O[C@H]1[C@H](O)[C@@H](CN(CC2CCCCC2)CC2CCCCC2)O[C@@H]1/C=C/[C@H]1O[C@H](CN(CC2CCCCC2)CC2CCCCC2)[C@@H](O)[C@@H]1O [(2R,3S,4S,5R)-2-((bis(cyclohexylmethyl)amino)methyl)-5-(2-((2R,3S,4S,5R)-5-((bis(cyclohexylmethyl)amino)methyl)-3,4-dihydroxy-tetrahydrofuran-2-yl)vinyl)-tetrahydrofuran-3,4-diol]",4.15 mM
3,"O[C@@H]1[C@@H](OC[C@H]2O[C@H](CN(CC3CCCCC3)CC3CCCCC3)[C@@H](O)[C@@H]2O)O[C@H](CN(CC2CCCCC2)CC2CCCCC2)[C@H]1O [(2R,3S,4S,5R)-2-((bis(cyclohexylmethyl)amino)methyl)-5-(((2S,3S,4S,5R)-5-((bis(cyclohexylmethyl)amino)methyl)-3,4-dihydroxy-tetrahydrofuran-2-yloxy)methyl)-tetrahydrofuran-3,4-diol]",2.8 mM
